# Experimental data from patent US20120282377A1, “Methods and Formulations for Inhibiting Degradation of Photosensitive Sweeteners and Sweetener Enhancers” (priority 2011, published 2012).
# Values joined by “and” are separate entries in the source; they are usually repeats but may differ in a detail not shown here. Equal entries are not always repeated.
# Legend:
# [1] = cited from earlier work
# [2] = Monatin stability in lemon-lime beverage with EMIQ, visible light (Example 4); format: physicochemical; conditions: for % Monatin remaining / Conc. of Monatin: with EMIQ
# Description: The polyphenol enzymatically-modified isoquercitrin (EMIQ) was used to stabilize monatin (31 mg/L) in a lemon lime carbonated beverage formulation contained in either a regular (clear, colorless) PET bottle or a dark-colored PET bottle. The level of EMIQ in the samples was 7.5 PPM. A control formulation was used that contained no EMIQ. The samples were exposed to UV light or ambient indoor laboratory fluorescent lighting for up to 72 hours. UV light was administered in a UV chamber at 40° C. with approximately 400 Langley per 6 hours of exposure. The results listed below indicate that the monatin was very unstable in the control formulations with only 1.4% monatin remaining after 24 hours exposure to UV light. EMIQ provided protection from degradation of the monatin. When packaged in a dark-colored PET bottle approximately 89% monatin remained in the formulation after exposure to UV light for 24 hours. When exposed to ambient indoor laboratory lighting for 72 hours over 90% monatin remained in both clear and dark PET bottles containing the EMIQ polyphenol. All analyses were done by HPLC/MS.
# [3] = Visual analysis of UV and light exposed monatin samples by 6 panelists; format: physicochemical; design: key: (+) = colorless; (−) = color change (color noted); conditions: 30 PPM in lemon lime matrix pH 3.35, panelists 1-6
# Description: A survey of odor and visual analysis of the UV and light exposed samples of the monatin samples was conducted by 6 panelists. Samples for analysis were solution of monatin in a lemon lime matrix without flavor at pH 3.35 (30 PPM monatin) exposed to visible for three days or UV light for 24 hours (equivalent of four days sun exposure).
# [4] = Stability of monatin in lemon lime matrix under visible light (Example 2); format: physicochemical
# Description: High-potency sweetener monatin was evaluated for stability to sunlight exposure when formulated into a beverage packaged in PET packaging (bottle) with and without a UV barrier or in a dark-colored PET packaging. This study was designed to evaluate the stability of RR stereoisomer of monatin under normal visible light and under ultraviolet light in the Atlas sun-test chamber using normal PET bottles, PET packaging with a UV barrier and dark PET packaging. For this purpose monatin solution was made in a lemon lime carbonated beverage matrix without any flavor added.
# The RR isomer of monatin was used for the present study after satisfactory HPLC and LC-MS data analyses confirmed that this sample greater than 95% pure. A lemon lime beverage matrix without flavor was used as the matrix base. The concentration of monatin in the matrix was 30 ppm.
# Due to lack of any RR-monatin standard, its stereoisomer, SS-monatin was used for HPLC calibration curve preparation as it appears at the same retention time as RR-monatin.
# Quantitative analysis of monatin via UV detection in LC-MS was done for all the samples. The methodology employed a 12% acetonitrile (solvent A) in 50 mM ammonium formate (pH 4.0, solvent B) for 5 min followed by a linear gradient to 34% acetonitrile over 5 min; Detection: UV @278 nm].
# 1) regular PET bottles, 300 mL or 8 Oz (bottle type A). 2) PET bottles with a UV barrier, 600 mL or 16 Oz, fresh un-used bottle* (bottle type B). * It was shown that the UV barrier capacity decreased after one use in the commercially bought 20 Oz PET bottles with a UV barrier (See the UV scan data in FIG. 1). 3) dark-colored PET bottles (bottle type C). UV light source: Atlas Sun-test chamber. Under program 1 of sun-test chamber, 6 hr of exposure is equal to one day of sun-light exposure in Arizona or 400 Langley at 40° C. Control Experiment: UV irradiation by using only a lemon lime matrix (no monatin added) in regular PET bottles and running the sun-test chamber for four days equivalent exposure was carried out. The purpose of this experiment was to make sure no artifact arises from lemon lime matrix in the monatin absorption region. No new signals were identified. 13 bottles were used in the monatin-lemon-lime matrix experiments: 1 regular PET at zero time and 3 regular PET bottles; 2 PET bottles with a UV barrier bottles and 7 dark-colored PET bottles. Zero time sample protocol: 330 mL PET bottle was filled up to ⅓^rd full, flushed with nitrogen, covered with foil and then kept at 4° C. Sample aliquot protocol: 5 mL was taken out in a 20 mL opaque glass scintillation vial. Both vial and experimental bottle were flushed with nitrogen. The vial was covered with foil and kept at 4° C.
# LC-MS analysis was carried out on all the samples in the same day as their maturation. A new monatin calibration curve was made every day with the SS-monatin sample.
# For these experiments, visible light is the normal laboratory light which was left on all the time during the experiment.
# [5] = dark-colored PET, Vis. exp. 0 hours
# [6] = dark-colored PET, Vis. exp. 5 hours
# [7] = dark-colored PET, Vis. exp. 7 hours
# [8] = dark-colored PET, Vis. exp. 23 hours
# [9] = dark-colored PET, Vis. exp. 28 hours
# [10] = dark-colored PET, Vis. exp. 48 hours
# [11] = regular PET, Vis. exp. 23 hours
# [12] = regular PET, Vis. exp. 28 hours
# [13] = regular PET, Vis. exp. 48 hours
structure (smiles),measurement,setting,value
"NC(CC(O)(Cc1c[nH]c2ccccc12)C(=O)O)C(=O)O (stereo not shown) [Monatin, 2-amino-4-carboxy-4-hydroxy-5-(3-indolyl)-pentanoic acid]",degradation when exposed to UV light,[1],degrade to malodorous degradation products
same,monatin remained,"[2]; ambient indoor laboratory lighting for 72 hours, both clear and dark PET bottles containing the EMIQ polyphenol",over 90%
same,% Monatin remaining,[2]; [5],100%
same,Conc. of Monatin,[2]; [5],30930 ng/mL
same,% Monatin remaining,[2]; [6],97.5%
same,Conc. of Monatin,[2]; [6],30160 ng/mL
same,% Monatin remaining,[2]; [7],96.4% and 96.2%
same,Conc. of Monatin,[2]; [7],29810 ng/mL and 29760 ng/mL
same,% Monatin remaining,[2]; [8],93.3% and 93.1%
same,Conc. of Monatin,[2]; [8],28870 ng/mL and 28790 ng/mL
same,% Monatin remaining,[2]; [9],94.5%
same,Conc. of Monatin,[2]; [9],29220 ng/mL
same,% Monatin remaining,[2]; [10],92.1% and 92.4%
same,Conc. of Monatin,[2]; [10],28490 ng/mL and 28590 ng/mL
same,% Monatin remaining,"[2]; regular PET, Vis. exp. 0 hours",100%
same,Conc. of Monatin,"[2]; regular PET, Vis. exp. 0 hours",30930 ng/mL
same,% Monatin remaining,"[2]; regular PET, Vis. exp. 5 hours",99.0% and 98.6%
same,Conc. of Monatin,"[2]; regular PET, Vis. exp. 5 hours",30620 ng/mL and 30510 ng/mL
same,% Monatin remaining,"[2]; regular PET, Vis. exp. 7 hours",97.2% and 97.4%
same,Conc. of Monatin,"[2]; regular PET, Vis. exp. 7 hours",30060 ng/mL and 30120 ng/mL
same,% Monatin remaining,[2]; [11],94.1%
same,Conc. of Monatin,[2]; [11],29100 ng/mL
same,% Monatin remaining,[2]; [12],94.7% and 94.8%
same,Conc. of Monatin,[2]; [12],29270 ng/mL and 29320 ng/mL
same,% Monatin remaining,[2]; [13],92.7% and 92.5%
same,Conc. of Monatin,[2]; [13],28680 ng/mL and 28610 ng/mL
same,Visual analysis,"[3]; PET with UV barrier, UV light 24 hours",−
same,Visual analysis,"[3]; PET with UV barrier, visible light three days",+
same,Visual analysis,"[3]; Regular PET, UV light 24 hours",−
same,Visual analysis,"[3]; Regular PET, visible light three days",+
same,degrades upon exposure to visible light,"[4]; lemon-lime matrix, any of the three types of bottles, visible light for up to 74 hours",less than 10%
same,Conc. in mg/L RR-Monatin in Lemon Lime matrix UV barrier PET Bottle (600 mL),[4]; visible light 0 hours,31.1 mg/L
same,Conc. in mg/L RR-Monatin in Lemon Lime matrix in Normal PET Bottle (330 mL),[4]; visible light 0 hours,31.1 mg/L
same,Conc. in mg/L RR-Monatin in Lemon Lime matrix in dark-colored PET Bottle (75 mL),[4]; visible light 0 hours,31.1 mg/L
same,Conc. in mg/L RR-Monatin in Lemon Lime matrix UV barrier PET Bottle (600 mL),[4]; visible light 5 hours,30.9 mg/L
same,Conc. in mg/L RR-Monatin in Lemon Lime matrix in Normal PET Bottle (330 mL),[4]; visible light 5 hours,31.0 mg/L
same,Conc. in mg/L RR-Monatin in Lemon Lime matrix in dark-colored PET Bottle (75 mL),[4]; visible light 5 hours,30.9 mg/L
same,Conc. in mg/L RR-Monatin in Lemon Lime matrix UV barrier PET Bottle (600 mL),[4]; visible light 8 hours,30.4 mg/L
same,Conc. in mg/L RR-Monatin in Lemon Lime matrix in Normal PET Bottle (330 mL),[4]; visible light 8 hours,30.4 mg/L
same,Conc. in mg/L RR-Monatin in Lemon Lime matrix in dark-colored PET Bottle (75 mL),[4]; visible light 8 hours,30.4 mg/L
same,Conc. in mg/L RR-Monatin in Lemon Lime matrix UV barrier PET Bottle (600 mL),[4]; visible light 26 hours,29.8 mg/L
same,Conc. in mg/L RR-Monatin in Lemon Lime matrix in Normal PET Bottle (330 mL),[4]; visible light 26 hours,29.7 mg/L
same,Conc. in mg/L RR-Monatin in Lemon Lime matrix in dark-colored PET Bottle (75 mL),[4]; visible light 26 hours,29.9 mg/L
same,Conc. in mg/L RR-Monatin in Lemon Lime matrix UV barrier PET Bottle (600 mL),[4]; visible light 31 hours,29.5 mg/L
same,Conc. in mg/L RR-Monatin in Lemon Lime matrix in Normal PET Bottle (330 mL),[4]; visible light 31 hours,29.7 mg/L
same,Conc. in mg/L RR-Monatin in Lemon Lime matrix in dark-colored PET Bottle (75 mL),[4]; visible light 31 hours,29.7 mg/L
same,Conc. in mg/L RR-Monatin in Lemon Lime matrix UV barrier PET Bottle (600 mL),[4]; visible light 49 hours,28.9 mg/L
same,Conc. in mg/L RR-Monatin in Lemon Lime matrix in Normal PET Bottle (330 mL),[4]; visible light 49 hours,29.2 mg/L
same,Conc. in mg/L RR-Monatin in Lemon Lime matrix in dark-colored PET Bottle (75 mL),[4]; visible light 49 hours,29.3 mg/L
same,Conc. in mg/L RR-Monatin in Lemon Lime matrix UV barrier PET Bottle (600 mL),[4]; visible light 56 hours,29.2 mg/L
same,Conc. in mg/L RR-Monatin in Lemon Lime matrix in Normal PET Bottle (330 mL),[4]; visible light 56 hours,29.1 mg/L
same,Conc. in mg/L RR-Monatin in Lemon Lime matrix in dark-colored PET Bottle (75 mL),[4]; visible light 56 hours,29.2 mg/L
same,Conc. in mg/L RR-Monatin in Lemon Lime matrix UV barrier PET Bottle (600 mL),[4]; visible light 74 hours,28.7 mg/L
same,Conc. in mg/L RR-Monatin in Lemon Lime matrix in Normal PET Bottle (330 mL),[4]; visible light 74 hours,28.8 mg/L
same,Conc. in mg/L RR-Monatin in Lemon Lime matrix in dark-colored PET Bottle (75 mL),[4]; visible light 74 hours,28.9 mg/L
